Counter-ions that a name gives are not always drawn.
Experiments:
[1] = molecular target: T1, NMDA receptor subunits 1A/2B (Rattus norvegicus, UniProt P35439+Q00960); assay: Electrophysiological assay at NMDA receptor subunits expressed in Xenopus oocytes, 1A/2B; assay type: cell-based; conditions: Xenopus oocytes; glutamate 100 μm and glycine 1-100 μm; read-out: Subunits IC50, 1A/2B
T1 construct: expressed in transfected cells; host or cells: Xenopus laevis oocytes (cRNA injection; clones from Dr. P. H. Seeburg)
T1 sequence (Q00960 27-1482, other chains not shown): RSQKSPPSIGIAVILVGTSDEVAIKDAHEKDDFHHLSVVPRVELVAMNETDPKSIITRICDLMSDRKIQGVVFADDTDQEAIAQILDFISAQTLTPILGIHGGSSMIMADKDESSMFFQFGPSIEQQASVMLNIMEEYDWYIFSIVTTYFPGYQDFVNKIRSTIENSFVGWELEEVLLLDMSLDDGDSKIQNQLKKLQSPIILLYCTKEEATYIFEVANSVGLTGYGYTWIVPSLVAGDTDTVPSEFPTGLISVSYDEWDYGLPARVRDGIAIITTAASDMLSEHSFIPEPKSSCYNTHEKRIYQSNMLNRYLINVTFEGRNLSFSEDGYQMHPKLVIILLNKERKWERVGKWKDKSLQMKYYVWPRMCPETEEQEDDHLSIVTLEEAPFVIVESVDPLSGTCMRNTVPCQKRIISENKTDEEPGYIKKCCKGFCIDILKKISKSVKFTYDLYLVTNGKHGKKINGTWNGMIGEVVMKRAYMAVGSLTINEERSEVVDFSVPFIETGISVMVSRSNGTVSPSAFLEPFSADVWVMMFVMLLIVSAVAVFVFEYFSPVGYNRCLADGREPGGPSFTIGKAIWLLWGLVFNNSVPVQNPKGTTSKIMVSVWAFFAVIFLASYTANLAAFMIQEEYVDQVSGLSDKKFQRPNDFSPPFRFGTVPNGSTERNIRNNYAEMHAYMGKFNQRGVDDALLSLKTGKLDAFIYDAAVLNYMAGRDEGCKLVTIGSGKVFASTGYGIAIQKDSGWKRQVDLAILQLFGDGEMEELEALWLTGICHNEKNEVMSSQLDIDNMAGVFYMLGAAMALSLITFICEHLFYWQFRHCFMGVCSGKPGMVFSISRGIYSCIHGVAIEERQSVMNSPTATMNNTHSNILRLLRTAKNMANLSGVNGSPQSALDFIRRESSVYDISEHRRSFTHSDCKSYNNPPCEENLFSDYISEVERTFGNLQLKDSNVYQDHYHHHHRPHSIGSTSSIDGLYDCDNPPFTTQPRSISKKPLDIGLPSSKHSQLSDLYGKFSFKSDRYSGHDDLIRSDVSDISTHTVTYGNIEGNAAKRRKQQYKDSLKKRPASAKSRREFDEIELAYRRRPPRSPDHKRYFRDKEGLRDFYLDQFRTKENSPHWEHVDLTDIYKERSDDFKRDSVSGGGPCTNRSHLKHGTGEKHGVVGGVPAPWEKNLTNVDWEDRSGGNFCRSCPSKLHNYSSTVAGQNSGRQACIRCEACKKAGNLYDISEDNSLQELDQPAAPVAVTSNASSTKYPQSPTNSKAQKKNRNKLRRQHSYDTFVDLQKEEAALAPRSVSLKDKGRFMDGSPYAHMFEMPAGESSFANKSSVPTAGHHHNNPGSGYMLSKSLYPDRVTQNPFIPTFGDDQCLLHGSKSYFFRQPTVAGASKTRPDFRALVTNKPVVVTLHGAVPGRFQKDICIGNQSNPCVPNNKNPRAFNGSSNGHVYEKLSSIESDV
Protocol: (§1) Many of the properties of native NMDA receptors are seen in recombinant homomeric NR1 receptors. These properties are altered by the NR2 subunits. Recombinant NMDA receptors expressed in Xenopus oocytes have been studied by voltage-clamp recording, as has developmental and regional expression of the mRNAs encoding NMDA receptor subunits. Electrophysiological assays were utilized to characterize the actions of compounds at NMDA receptors expressed in Xenopus oocytes. The compounds were assayed at four subunit combinations of cloned rat NMDA receptors, corresponding to three putative NMDA receptor subtypes [Moriyoshi, et al. Nature 1991, 354, 31-37; Monyer et al, Science 1992, 256, 1217-1221; Kutsuwada et al, Nature 1992, 358, 36-41; Sugihara et al, Biochem. Biophys Res. Commun. 1992, 185, 826-832].
(§2) Electrophysiological Assays at NMDA Receptor Subunits
(§3) Preparation of RNA. cDNA clones encoding the NR1A, NR2A, NR2B, NR2C and NR2D rat NMDA receptor subtypes were provided by Dr. P. H. Seeburg (see, Moriyoshi et al., Nature (Lond.) 354:31-37 (1991); Kutsuwada et al., Nature (Lond.) 358:36-41 (1992) Monyer et al., Science (Washington, D.C.) 256:1217-1221 (1992); Ikeda et al., FEBS Lett. 313:34-38 (1992); Ishii et al., J. Biol. Chem. 268:2836-2843 (1993) for details of these clones or their mouse homologs). The clones were transformed into appropriate host bacteria and plasmid preparations were made with conventional DNA purification techniques. A sample of each clone was linearized by restriction enzyme digestion and cRNA was synthesized with T3 RNA polymerase. The cRNA was diluted to 400 ng/μl and stored in 1 μl aliquots at -80° C. until injection.
(§4) The Xenopus oocyte expression system. Mature female Xenopus laevis were anaesthetized (20-40 min) using 0.15% 3-aminobenzoic acid ethyl ester (MS-222) and 2-4 ovarian lobes were surgically removed. Oocytes at developmental stages IV-VI (Dumont, J. N., J. Morphol. 136:153-180 (1972)), were dissected from the ovary still surrounded by enveloping ovarian tissues. Follicle-enclosed oocytes were micro-injected with 1:1 mixtures of cRNA:NR1A+NR2A, 2B, 2C or 2D; injecting ~2,5, or 20 ng of RNA encoding each receptor subunit. NR1A encoding cRNA was injected alone at ~20 ng. Oocytes were stored in Barth's medium containing (in mM):NaCl, 88; KCl, 1; CaCl2, 0.41; Ca(NO3)2, 0.33; MgSO4, 0.82 NaHCO3, 2.4; HEPES 5, pH 7.4, with 0.1 mg/ml gentamicin sulphate. While oocytes were still surrounded by enveloping ovarian tissues the Barth's medium was supplemented with 0.1% bovine serum. Oocytes were defolliculated 1-2 days following injections by treatment with collagenase (0.5 mg/ml Sigma Type I for 0.5-1 hr) (Miledi and Woodward, J. Physiol. (Lond.) 416:601-621 (1989)) and subsequently stored in serum-free medium.
(§5) Electrical recordings were made using a conventional two-electrode voltage clamp (Dagan TEV-200) over periods ranging between 3-21 days following injection. (Woodward et al., Mol. Pharmacol. 41: 89-103 (1992)). Oocytes were placed in a 0.1 ml recording chamber continuously perfused (5-15 ml min^-1 ) with frog Ringer's solution containing (in mM):NaCl, 115; KCl, 2; CaCl2, 1.8; HEPES, 5; pH 7.4. Drugs were applied by bath perfusion. Using oocytes expressing different subunit combinations of NMDA receptor, NMDA currents were activated by co-application of glutamate (100 μm) and glycine (1-100 μm). Inhibitory potency of the novel antagonists was assessed on responses elicited by fixed concentrations of glutamate and glycine, by measuring reductions in current induced by progressively increasing concentrations of antagonist. Concentration-inhibition curves were fit with equation 1.
(§6) I/Icontrol =1/(1+([antagonist]/10^-pIC50)^n) Eq. 1
(§7) in which Icontrol is the current evoked by agonists alone, pIC50 =-log IC50, IC50 is the concentration of antagonist that produces half maximal inhibition, and n is the slope factor. (De Lean et al., Am. J. Physiol. 235:E97-102 (1978)). […]

[2] = molecular target: T2, NMDA receptor subunits 1A/2A (Rattus norvegicus, UniProt P35439+Q00959); assay: Electrophysiological assay at NMDA receptor subunits expressed in Xenopus oocytes, 1A/2A; assay type: cell-based; conditions: glutamate 100 μm and glycine 1-100 μm
T2 construct: expressed in transfected cells; host or cells: Xenopus laevis oocytes (cRNA injection; clones from Dr. P. H. Seeburg)
T2 sequence (Q00959 20-1464 limits assumed, other chains not shown): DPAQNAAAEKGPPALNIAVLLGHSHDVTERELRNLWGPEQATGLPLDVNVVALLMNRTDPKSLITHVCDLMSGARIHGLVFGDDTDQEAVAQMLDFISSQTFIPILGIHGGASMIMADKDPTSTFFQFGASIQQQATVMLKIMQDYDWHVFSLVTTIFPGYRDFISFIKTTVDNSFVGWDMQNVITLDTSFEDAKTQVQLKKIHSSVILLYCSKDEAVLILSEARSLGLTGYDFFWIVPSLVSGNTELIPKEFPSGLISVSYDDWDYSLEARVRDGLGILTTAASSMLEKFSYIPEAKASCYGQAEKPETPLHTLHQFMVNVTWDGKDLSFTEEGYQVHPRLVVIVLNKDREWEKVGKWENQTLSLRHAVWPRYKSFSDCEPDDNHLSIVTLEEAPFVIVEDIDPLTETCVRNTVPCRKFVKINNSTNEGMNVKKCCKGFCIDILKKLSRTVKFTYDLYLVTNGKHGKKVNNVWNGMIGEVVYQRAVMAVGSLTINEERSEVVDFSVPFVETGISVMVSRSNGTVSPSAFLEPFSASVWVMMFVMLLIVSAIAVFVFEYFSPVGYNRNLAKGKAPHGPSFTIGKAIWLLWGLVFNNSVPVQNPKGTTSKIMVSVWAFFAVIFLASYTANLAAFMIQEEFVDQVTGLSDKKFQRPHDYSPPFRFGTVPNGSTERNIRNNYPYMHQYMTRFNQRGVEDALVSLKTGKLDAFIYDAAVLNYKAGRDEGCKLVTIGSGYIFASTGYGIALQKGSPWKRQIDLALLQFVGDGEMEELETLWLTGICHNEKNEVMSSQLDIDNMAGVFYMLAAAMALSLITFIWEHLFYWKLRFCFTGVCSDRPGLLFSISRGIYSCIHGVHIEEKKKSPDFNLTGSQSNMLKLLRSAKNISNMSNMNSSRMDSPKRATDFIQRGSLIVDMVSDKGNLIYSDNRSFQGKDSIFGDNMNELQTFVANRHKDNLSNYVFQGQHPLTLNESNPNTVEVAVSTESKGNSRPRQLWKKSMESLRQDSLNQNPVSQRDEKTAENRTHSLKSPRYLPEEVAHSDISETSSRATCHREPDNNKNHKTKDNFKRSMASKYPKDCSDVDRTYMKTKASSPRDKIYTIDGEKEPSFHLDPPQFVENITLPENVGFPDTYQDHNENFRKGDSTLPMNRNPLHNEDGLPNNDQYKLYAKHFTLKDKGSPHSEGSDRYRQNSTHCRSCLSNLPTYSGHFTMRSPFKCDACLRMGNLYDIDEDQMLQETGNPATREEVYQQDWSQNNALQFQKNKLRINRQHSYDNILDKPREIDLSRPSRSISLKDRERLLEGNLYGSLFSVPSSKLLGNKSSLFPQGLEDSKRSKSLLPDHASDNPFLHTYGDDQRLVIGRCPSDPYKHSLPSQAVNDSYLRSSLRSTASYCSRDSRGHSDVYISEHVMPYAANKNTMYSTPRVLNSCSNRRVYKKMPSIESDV
Protocol: as §1, §2, §3, §4, §5, §6, §7

[3] = molecular target: T3, NMDA receptor subunits 1A/2C (Rattus norvegicus, UniProt P35439+Q00961); assay: Electrophysiological assay at NMDA receptor subunits expressed in Xenopus oocytes, 1A/2C; assay type: cell-based; conditions: Xenopus oocytes; glutamate 100 μm and glycine 1-100 μm; read-out: Subunits IC50, 1A/2C
T3 construct: expressed in transfected cells; host or cells: Xenopus laevis oocytes (cRNA injection; clones from Dr. P. H. Seeburg)
T3 sequence (Q00961 20-1237, other chains not shown): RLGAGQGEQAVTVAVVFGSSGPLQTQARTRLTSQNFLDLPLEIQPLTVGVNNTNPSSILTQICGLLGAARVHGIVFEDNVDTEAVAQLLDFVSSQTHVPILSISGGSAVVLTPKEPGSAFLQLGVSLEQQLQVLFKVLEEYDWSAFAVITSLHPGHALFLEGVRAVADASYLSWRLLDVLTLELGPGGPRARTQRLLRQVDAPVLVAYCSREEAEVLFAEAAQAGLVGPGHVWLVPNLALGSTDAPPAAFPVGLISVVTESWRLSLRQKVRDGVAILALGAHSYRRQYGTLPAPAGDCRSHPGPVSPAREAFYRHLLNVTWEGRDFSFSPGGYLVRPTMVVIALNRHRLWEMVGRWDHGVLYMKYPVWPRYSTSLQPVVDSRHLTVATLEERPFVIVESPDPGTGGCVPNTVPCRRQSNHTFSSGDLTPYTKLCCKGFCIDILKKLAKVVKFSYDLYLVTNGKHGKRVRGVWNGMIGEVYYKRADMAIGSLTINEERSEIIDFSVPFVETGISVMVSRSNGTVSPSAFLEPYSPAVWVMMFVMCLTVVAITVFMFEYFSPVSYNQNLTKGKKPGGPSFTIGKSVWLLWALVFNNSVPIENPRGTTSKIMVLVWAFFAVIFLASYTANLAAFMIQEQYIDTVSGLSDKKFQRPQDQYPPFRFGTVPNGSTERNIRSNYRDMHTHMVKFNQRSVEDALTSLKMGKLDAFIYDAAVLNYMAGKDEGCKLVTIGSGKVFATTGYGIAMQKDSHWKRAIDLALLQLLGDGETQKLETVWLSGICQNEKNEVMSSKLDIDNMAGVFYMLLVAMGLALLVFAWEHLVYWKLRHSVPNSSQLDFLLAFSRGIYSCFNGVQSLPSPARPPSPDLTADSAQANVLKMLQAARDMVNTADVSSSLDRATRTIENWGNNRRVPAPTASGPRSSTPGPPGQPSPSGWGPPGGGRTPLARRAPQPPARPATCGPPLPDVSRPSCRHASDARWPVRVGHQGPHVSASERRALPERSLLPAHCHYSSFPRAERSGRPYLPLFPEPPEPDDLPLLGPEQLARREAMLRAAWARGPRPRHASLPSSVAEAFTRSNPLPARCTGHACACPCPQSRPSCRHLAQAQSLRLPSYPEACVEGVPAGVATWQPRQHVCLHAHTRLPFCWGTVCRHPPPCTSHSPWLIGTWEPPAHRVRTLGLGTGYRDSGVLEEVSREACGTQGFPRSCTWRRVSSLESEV
Protocol: as §1, §2, §3, §4, §5, §6, §7

[4] = tested on: Maximal Electroshock-induced Seizures; assay: Maximal electroshock-induced seizures (MES); assay type: in vivo; conditions: Mus musculus; mice; 50 mA, 60 pulses/sec, 1 sec
From the text: Seizures were induced by application of current (50 mA, 60 pulses/sec, 0.8 sec pulse width, 1 sec duration, d.c.) through saline-coated corneal electrodes using a Ugo Basile ECT device (Model 7801). […] A tonic seizure was defined as a hindlimb extension in excess of 90 degrees from the plane of the body.

Structure (SMILES)	IC50 [1] [µM]	IC50 [2] [µM]	IC50 [3] [µM]	ED50 [4] [mg/kg]
c1ccc(CC2CCN(CCCOc3ccccc3)CC2)cc1 [Ex. 2, 4-Benzyl-1-(3-phenoxypropyl)piperidine]	1.1	89	> 100	3
OC(COc1cccc2ccccc12)CN1CCC(Cc2ccccc2)CC1 (centres unmarked) [Ex. 3, 4-Benzyl-1-[2-hydroxy-3-(1-naphthyloxy)propyl]piperidine]	2.8	35	> 100	2
Cl.O=Cc1cccc(OCCN2CCC(Cc3ccccc3)CC2)c1 [Ex. 15, 3-((2-(4-Benzylpiperidin-1-yl)ethyl)oxy)benzaldehyde hydrochloride]	1.2		> 100	100
ON=Cc1cccc(OCCN2CCC(Cc3ccccc3)CC2)c1 [Ex. 16, 3-((2-(4-Benzylpiperidin-1-yl)ethyl)oxy)benzaldehyde oxime]	0.5		> 100	2.5
NC(=O)Cc1cccc(OCCN2CCC(Cc3ccccc3)CC2)c1 [Ex. 19, 1-(2-(3-(Aminocarbonylmethyl)phenoxy)ethyl)-4-benzylpiperidine]	0.35			6
O=[N+]([O-])c1ccc(OCCN2CCC(Cc3ccc(Cl)cc3)CC2)cc1 [Ex. 27, 4-(4-Chlorobenzyl)-1-(2-(4-nitrophenoxy)ethyl)piperidine hydrobromide]	5		> 100	5
Fc1ccc(CC2CCN(CCOc3ccc(F)cc3)CC2)cc1 [Ex. 33, 4-(4-Fluorobenzyl)-1-(2-(4-fluorophenoxy)ethyl)piperidine hydrochloride]	2		> 100	4
Nc1cccc(OCCN2CCC(Cc3ccccc3)CC2)c1N [Ex. 53, 4-Benzyl-1-[2-(2,3-diaminophenoxy)ethyl]piperidine]	0.31		> 100	2.5
Nc1ccc(OCCN2CCC(Cc3ccccc3)CC2)cc1N [Ex. 57, 4-Benzyl-1-[2-(3,4-diaminophenoxy)ethyl]piperidine]	0.3		> 100	6.5
Nc1ccccc1OCCN1CCC(Cc2ccccc2)CC1 [Ex. 61, 4-Benzyl-1-[2-(2-aminophenoxy)ethyl]piperidine]	0.3		> 100	2.5
Nc1cccc(OCCN2CCC(Cc3ccccc3)CC2)c1 [Ex. 63, 4-Benzyl-1-[2-(3-aminophenoxy)ethyl]piperidine]	0.5		> 100	3
Nc1ccc(OCCN2CCC(Cc3ccccc3)CC2)cc1 [Ex. 65, 4-Benzyl-1-[2-(4-aminophenoxy)ethyl]piperidine]				6
COc1ccc(OCCN2CCC(Cc3ccccc3)CC2)cc1 [Ex. 70]	1		> 100	1.5
c1ccc(CCN2CCC(Cc3ccccc3)CC2)cc1 [Ex. 83, 4-Benzyl-1-(2-phenylethyl)piperidine hydrochloride]	1		> 100	2
OC1(Cc2ccccc2)CCN(CCc2ccccc2)CC1 [Ex. 90, 4-Benzyl-4-hydroxy-1-(2-phenylethyl)piperidine hydrochloride]	5		> 100	5
O=c1[nH]c2ccccc2n1C1CCN(CCCOc2ccccc2)CC1 [Ex. 96, 4-(2-Keto-1-benzimidazolinyl)-1-(3-phenoxypropyl)piperidine hydrobromide]	17		> 100	3.5
Oc1ccc(OCCN2CCC(Cc3ccc4c(c3)CCCC4)CC2)cc1 [Ex. 139, 4-((5,6,7,8-Tetrahydro-2-naphthyl)methyl)-1-(2-(4-hydroxyphenoxy)ethyl)piperidine hydrochloride]	0.25	70		4.5
Cl.Oc1ccc(OCCN2CCC(Cc3ccc(F)cc3)CC2)cc1F [Ex. 150, 1-[2-(4-Hydroxy-3-fluorophenoxy)ethyl]-4-(4-fluorobenzyl)piperidine hydrochloride]	0.02		> 300	3
